Here are results for six molecules from publication PMC10367113 (Nature chemical biology, 2022).

For data set [1], the target named is T1, Bl_Endo85 (Bifidobacterium longum, UniProt Q8G4P3).
T1 sequence (Q8G4P3 38-937): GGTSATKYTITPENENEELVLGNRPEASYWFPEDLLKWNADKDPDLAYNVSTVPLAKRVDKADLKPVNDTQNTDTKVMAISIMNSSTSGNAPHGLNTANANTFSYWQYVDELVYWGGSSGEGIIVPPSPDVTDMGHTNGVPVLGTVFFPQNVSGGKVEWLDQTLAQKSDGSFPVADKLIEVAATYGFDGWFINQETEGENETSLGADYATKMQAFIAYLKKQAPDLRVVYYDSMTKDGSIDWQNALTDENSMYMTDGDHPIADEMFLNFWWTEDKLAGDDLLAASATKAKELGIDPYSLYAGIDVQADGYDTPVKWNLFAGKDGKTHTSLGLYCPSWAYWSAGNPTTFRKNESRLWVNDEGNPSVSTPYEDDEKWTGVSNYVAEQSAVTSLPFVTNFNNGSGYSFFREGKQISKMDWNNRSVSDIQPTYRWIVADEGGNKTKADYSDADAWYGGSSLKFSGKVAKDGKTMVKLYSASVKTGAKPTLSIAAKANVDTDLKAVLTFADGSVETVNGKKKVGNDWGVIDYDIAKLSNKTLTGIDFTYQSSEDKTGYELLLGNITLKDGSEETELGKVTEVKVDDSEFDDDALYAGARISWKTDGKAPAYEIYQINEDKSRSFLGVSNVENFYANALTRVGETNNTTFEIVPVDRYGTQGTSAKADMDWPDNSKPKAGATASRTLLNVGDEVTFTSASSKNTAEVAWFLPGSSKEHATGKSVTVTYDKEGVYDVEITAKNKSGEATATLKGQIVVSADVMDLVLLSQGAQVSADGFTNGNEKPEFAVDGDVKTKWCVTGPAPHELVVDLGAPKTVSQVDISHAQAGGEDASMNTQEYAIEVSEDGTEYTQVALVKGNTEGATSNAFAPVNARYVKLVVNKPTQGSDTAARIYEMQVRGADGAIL
The experiment in a line: LC-MS. The conditions noted are these: 150 mM ammonium acetate pH 5.0, 37 °C, 16 h. It counts as biochemical.

Data set [2] has as its target T2, Bl_Man38B (Bifidobacterium longum, UniProt Q8G4Q0).
T2 sequence (Q8G4Q0 1-1046): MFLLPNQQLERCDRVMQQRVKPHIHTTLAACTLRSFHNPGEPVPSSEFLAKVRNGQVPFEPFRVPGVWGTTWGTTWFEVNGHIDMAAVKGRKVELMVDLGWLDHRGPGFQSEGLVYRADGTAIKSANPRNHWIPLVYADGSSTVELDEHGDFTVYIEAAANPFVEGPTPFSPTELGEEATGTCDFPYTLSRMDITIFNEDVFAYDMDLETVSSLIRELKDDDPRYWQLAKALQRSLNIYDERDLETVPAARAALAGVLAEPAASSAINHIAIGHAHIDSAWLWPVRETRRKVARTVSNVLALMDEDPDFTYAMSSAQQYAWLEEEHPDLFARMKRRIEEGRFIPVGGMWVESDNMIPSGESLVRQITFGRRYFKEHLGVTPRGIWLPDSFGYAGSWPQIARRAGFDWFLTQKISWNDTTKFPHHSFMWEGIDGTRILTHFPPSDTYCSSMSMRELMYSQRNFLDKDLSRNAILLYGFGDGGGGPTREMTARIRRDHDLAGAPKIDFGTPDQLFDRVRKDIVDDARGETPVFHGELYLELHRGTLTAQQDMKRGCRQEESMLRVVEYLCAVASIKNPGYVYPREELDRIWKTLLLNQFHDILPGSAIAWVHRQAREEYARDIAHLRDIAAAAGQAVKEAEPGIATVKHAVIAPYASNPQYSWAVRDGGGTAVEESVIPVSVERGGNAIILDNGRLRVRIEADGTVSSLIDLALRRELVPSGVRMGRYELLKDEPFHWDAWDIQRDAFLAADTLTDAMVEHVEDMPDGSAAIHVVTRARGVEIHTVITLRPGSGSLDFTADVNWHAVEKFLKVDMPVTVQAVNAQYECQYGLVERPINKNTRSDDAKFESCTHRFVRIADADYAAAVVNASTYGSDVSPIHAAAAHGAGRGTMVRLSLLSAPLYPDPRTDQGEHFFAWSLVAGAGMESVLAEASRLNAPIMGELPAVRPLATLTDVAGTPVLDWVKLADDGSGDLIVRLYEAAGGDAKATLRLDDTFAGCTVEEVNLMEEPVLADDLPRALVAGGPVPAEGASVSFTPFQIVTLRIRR
The experiment in a line: LC-MS hydrolysis kinetics. Conditions: pH 5.5, 37 °C, 0.1 mM CoCl2. In kind it is biochemical.

For data set [3], the target named is T3, Bl_Man125 (Bifidobacterium longum, UniProt Q8G4P0).
T3 sequence (Q8G4P0 1-432): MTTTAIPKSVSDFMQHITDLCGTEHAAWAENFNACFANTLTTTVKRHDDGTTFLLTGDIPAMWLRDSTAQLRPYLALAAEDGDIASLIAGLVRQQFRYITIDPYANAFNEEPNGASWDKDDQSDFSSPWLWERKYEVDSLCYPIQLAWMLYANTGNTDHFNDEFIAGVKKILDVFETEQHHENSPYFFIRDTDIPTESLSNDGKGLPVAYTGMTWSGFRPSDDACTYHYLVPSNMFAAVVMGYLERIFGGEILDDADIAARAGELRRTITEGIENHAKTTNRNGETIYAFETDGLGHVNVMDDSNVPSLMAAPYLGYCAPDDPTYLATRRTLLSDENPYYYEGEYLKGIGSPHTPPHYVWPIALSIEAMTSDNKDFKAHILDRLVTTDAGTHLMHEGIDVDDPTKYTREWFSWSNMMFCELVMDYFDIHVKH
The experiment in a line: LC-MS hydrolysis kinetics. The conditions noted are these: pH 5.5, 37 °C. It counts as biochemical.

The target of data set [4] is T4, Bl_Man38C (Bifidobacterium longum, UniProt Q8G4P9).
T4 sequence (Q8G4P9 1-1034): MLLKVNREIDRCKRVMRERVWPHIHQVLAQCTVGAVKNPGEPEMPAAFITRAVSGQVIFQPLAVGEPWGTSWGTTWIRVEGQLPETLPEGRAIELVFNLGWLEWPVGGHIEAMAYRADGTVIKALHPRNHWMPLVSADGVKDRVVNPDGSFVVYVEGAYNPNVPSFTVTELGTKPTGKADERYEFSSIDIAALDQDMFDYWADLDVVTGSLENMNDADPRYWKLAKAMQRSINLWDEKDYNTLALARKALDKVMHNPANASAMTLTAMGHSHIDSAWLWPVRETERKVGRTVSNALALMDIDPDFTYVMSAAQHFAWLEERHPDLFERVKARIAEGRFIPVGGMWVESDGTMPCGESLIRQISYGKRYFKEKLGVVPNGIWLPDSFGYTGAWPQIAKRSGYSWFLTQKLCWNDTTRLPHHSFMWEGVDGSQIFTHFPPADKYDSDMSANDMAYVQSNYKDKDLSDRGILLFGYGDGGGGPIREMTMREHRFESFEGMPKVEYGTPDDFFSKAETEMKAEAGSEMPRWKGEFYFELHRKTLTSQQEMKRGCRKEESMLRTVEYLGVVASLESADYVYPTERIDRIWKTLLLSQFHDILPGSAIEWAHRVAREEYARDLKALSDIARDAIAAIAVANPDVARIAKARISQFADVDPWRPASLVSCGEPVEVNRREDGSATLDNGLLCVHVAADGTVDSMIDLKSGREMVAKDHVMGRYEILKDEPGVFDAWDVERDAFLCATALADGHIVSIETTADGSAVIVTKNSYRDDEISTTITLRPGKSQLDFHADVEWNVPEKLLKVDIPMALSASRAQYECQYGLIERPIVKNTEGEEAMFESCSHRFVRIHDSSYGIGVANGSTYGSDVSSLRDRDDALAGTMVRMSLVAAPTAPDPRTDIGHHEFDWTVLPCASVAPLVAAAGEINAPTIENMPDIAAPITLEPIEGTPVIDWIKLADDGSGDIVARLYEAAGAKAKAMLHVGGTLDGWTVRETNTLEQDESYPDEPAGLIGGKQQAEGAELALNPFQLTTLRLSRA
Kind of data set: LC-MS hydrolysis kinetics. The conditions noted are these: pH 5.5, 37 °C, 0.1 mM CoCl2. In kind it is biochemical.

Data set [5] deals with the molecule itself. Kind of data set: cryo-EM structure.

Turning to `CC(=O)N[C@@H]1[C@@H](O)[C@H](O[C@@H]2O[C@H](CO)[C@@H](O[C@@H]3O[C@H](CO[C@H]4O[C@H](CO[C@H]5O[C@H](CO)[C@@H](O)[C@H](O)[C@@H]5O[C@H]5O[C@H](CO)[C@@H](O)[C@H](O)[C@@H]5O)[C@@H](O)[C@H](O[C@H]5O[C@H](CO)[C@@H](O)[C@H](O)[C@@H]5O[C@H]5O[C@H](CO)[C@@H](O)[C@H](O)[C@@H]5O)[C@@H]4O)[C@@H](O)[C@H](O[C@H]4O[C@H](CO)[C@@H](O)[C@H](O)[C@@H]4O[C@H]4O[C@H](CO)[C@@H](O)[C@H](O)[C@@H]4O[C@H]4O[C@H](CO)[C@@H](O)[C@H](O)[C@@H]4O)[C@@H]3O)[C@H](O)[C@H]2NC(C)=O)[C@@H](CO)O[C@H]1NC(=O)C[C@H](N)C(=O)O` [Man9GlcNAc2-Asn], in data set [1] (product Man9GlcNAc), the LC-MS entry was “Reactions of Bl_Endo85 against Man5GlcNAc2-Asn (e) and Man9GlcNAc2-Asn (g)”.
Turning to `OC[C@H]1O[C@H](O[C@H]2[C@H](O)[C@@H](CO)OC(O)[C@H]2O)[C@@H](O)[C@@H](O)[C@@H]1O` (stereo partly drawn) [α-1,3-mannobiose], the Km entry in data set [2] is listed as “Bl_Man38B was efficient over the three disaccharides”.
For the molecule `CC(=O)N[C@H]1[C@H](O[C@H]2[C@H](O)[C@@H](NC(C)=O)C(O)O[C@@H]2CO)O[C@H](CO)[C@@H](O[C@@H]2O[C@H](CO[C@H]3O[C@H](CO[C@H]4O[C@H](CO)[C@@H](O)[C@H](O)[C@@H]4O[C@H]4O[C@H](CO)[C@@H](O)[C@H](O)[C@@H]4O)[C@@H](O)[C@H](O[C@H]4O[C@H](CO)[C@@H](O)[C@H](O)[C@@H]4O[C@H]4O[C@H](CO)[C@@H](O)[C@H](O)[C@@H]4O)[C@@H]3O)[C@@H](O)[C@H](O[C@H]3O[C@H](CO)[C@@H](O)[C@H](O)[C@@H]3O[C@H]3O[C@H](CO)[C@@H](O)[C@H](O)[C@@H]3O[C@H]3O[C@H](CO)[C@@H](O)[C@H](O[C@H]4O[C@H](CO)[C@@H](O)[C@H](O)[C@H]4O)[C@@H]3O)[C@@H]2O)[C@@H]1O` (stereo partly shown) [GlcMan9GlcNAc2], the LC-MS entry in data set [1] (product GlcMan9GlcNAc) is reported as “Reaction of Bl_Endo85 against GlcMan9GlcNAc2, generating GlcMan9GlcNAc”.
`OC[C@H]1O[C@H](OC[C@H]2OC(O)[C@@H](O)[C@@H](O)[C@@H]2O)[C@@H](O)[C@@H](O)[C@@H]1O` (stereo partly drawn) [α-1,6-mannobiose]: the Km entry is on record as “Bl_Man125 was shown to be strictly an α-1,6-mannosidase” in data set [3] and “Bl_Man38B was efficient over the three disaccharides” in data set [2].
As for `OC[C@H]1O[C@H](O[C@@H]2C(O)O[C@H](CO)[C@@H](O)[C@@H]2O)[C@@H](O)[C@@H](O)[C@@H]1O` (stereo partly drawn) [α-1,2-mannobiose], the Km result in data set [4] was “Bl_Man38C presents a clear preference for α-1,2-mannobiose”.

B1: Bl_Man38C, GH38 α-mannosidase from Bifidobacterium longum NCC2705 (enzyme)
chain: MLLKVNREIDRCKRVMRERVWPHIHQVLAQCTVGAVKNPGEPEMPAAFITRAVSGQVIFQPLAVGEPWGTSWGTTWIRVEGQLPETLPEGRAIELVFNLGWLEWPVGGHIEAMAYRADGTVIKALHPRNHWMPLVSADGVKDRVVNPDGSFVVYVEGAYNPNVPSFTVTELGTKPTGKADERYEFSSIDIAALDQDMFDYWADLDVVTGSLENMNDADPRYWKLAKAMQRSINLWDEKDYNTLALARKALDKVMHNPANASAMTLTAMGHSHIDSAWLWPVRETERKVGRTVSNALALMDIDPDFTYVMSAAQHFAWLEERHPDLFERVKARIAEGRFIPVGGMWVESDGTMPCGESLIRQISYGKRYFKEKLGVVPNGIWLPDSFGYTGAWPQIAKRSGYSWFLTQKLCWNDTTRLPHHSFMWEGVDGSQIFTHFPPADKYDSDMSANDMAYVQSNYKDKDLSDRGILLFGYGDGGGGPIREMTMREHRFESFEGMPKVEYGTPDDFFSKAETEMKAEAGSEMPRWKGEFYFELHRKTLTSQQEMKRGCRKEESMLRTVEYLGVVASLESADYVYPTERIDRIWKTLLLSQFHDILPGSAIEWAHRVAREEYARDLKALSDIARDAIAAIAVANPDVARIAKARISQFADVDPWRPASLVSCGEPVEVNRREDGSATLDNGLLCVHVAADGTVDSMIDLKSGREMVAKDHVMGRYEILKDEPGVFDAWDVERDAFLCATALADGHIVSIETTADGSAVIVTKNSYRDDEISTTITLRPGKSQLDFHADVEWNVPEKLLKVDIPMALSASRAQYECQYGLIERPIVKNTEGEEAMFESCSHRFVRIHDSSYGIGVANGSTYGSDVSSLRDRDDALAGTMVRMSLVAAPTAPDPRTDIGHHEFDWTVLPCASVAPLVAAAGEINAPTIENMPDIAAPITLEPIEGTPVIDWIKLADDGSGDIVARLYEAAGAKAKAMLHVGGTLDGWTVRETNTLEQDESYPDEPAGLIGGKQQAEGAELALNPFQLTTLRLSRA
Broadly, the stoichiometry N is the number of molecules, sites or subunits per partner or assembly. For the molecule B1, the “stoichiometry N” value in data set [5] was 4.
